ChEMBL document CHEMBL4813953, “Kinetics-Driven Drug Design Strategy for Next-Generation Acetylcholinesterase Inhibitors to Clinical Candidate” (J Med Chem, 2021)
Active and inactive are the calls of the source. The calls are words filed in the database; no cut-off is given here.

Legend:
[1] = Genotoxicity in Salmonella typhimurium TA100 by Ames test; format: toxicity; details: salmonella enterica subsp. enterica serovar typhimurium
[2] = AUC (0 to infinity) in Sprague-Dawley rat at 0.5 mg/kg, po; format: ADME, organism-based; parameters: time infinity, route oral, dose 0.5 mg/kg; details: in vivo
[3] = Oral bioavailability in Sprague-Dawley rat at 0.5 mg/kg; format: ADME, organism-based; details: in vivo
[4] = Cmax in Sprague-Dawley rat at 0.5 mg/kg, po; format: ADME, organism-based; parameters: route oral, dose 0.5 mg/kg; details: in vivo
[5] = molecular target: T1, Acetylcholinesterase (Mus musculus) (UniProt P21836); experiment: Ex vivo inhibition of AChE in ICR mouse cortex homogenate at 2 mg/kg, ig using acetylthiocholine iodide as substrate measured after 30 to 240 mins by DTNB reagent based assay; format: functional, organism-based; details: time 30-240 min
T1 sequence (whole entry): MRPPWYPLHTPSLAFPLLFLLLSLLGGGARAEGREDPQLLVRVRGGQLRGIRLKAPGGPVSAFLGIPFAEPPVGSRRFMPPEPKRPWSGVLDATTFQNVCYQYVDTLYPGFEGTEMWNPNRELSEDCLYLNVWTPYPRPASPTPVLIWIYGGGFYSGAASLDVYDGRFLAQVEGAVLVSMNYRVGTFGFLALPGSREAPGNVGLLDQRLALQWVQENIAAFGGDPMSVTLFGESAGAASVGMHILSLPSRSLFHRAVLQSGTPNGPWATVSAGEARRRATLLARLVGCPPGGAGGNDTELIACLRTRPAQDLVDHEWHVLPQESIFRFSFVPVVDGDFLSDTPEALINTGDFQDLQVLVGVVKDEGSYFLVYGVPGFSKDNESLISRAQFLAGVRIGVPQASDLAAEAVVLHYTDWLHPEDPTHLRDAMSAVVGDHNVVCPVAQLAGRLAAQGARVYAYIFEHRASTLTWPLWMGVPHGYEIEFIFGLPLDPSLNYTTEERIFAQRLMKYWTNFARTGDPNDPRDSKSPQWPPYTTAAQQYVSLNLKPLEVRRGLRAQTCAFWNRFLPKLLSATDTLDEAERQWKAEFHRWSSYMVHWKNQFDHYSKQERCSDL

[6] = Toxicity in Beagle dog assessed as effect on respiration at 0.1 to 1 mg/kg; format: organism-based, Canis lupus familiaris; details: in vivo, dose 0.1-1 mg/kg
Cytochrome P450 3A4 = Cytochrome P450 3A4 (Homo sapiens, UniProt P08684); experiment: Inhibition of CYP3A4 in human hepatocytes; format: ADME, cell-based, Hepatocyte
Sequence of Cytochrome P450 3A4 (P08684 whole entry): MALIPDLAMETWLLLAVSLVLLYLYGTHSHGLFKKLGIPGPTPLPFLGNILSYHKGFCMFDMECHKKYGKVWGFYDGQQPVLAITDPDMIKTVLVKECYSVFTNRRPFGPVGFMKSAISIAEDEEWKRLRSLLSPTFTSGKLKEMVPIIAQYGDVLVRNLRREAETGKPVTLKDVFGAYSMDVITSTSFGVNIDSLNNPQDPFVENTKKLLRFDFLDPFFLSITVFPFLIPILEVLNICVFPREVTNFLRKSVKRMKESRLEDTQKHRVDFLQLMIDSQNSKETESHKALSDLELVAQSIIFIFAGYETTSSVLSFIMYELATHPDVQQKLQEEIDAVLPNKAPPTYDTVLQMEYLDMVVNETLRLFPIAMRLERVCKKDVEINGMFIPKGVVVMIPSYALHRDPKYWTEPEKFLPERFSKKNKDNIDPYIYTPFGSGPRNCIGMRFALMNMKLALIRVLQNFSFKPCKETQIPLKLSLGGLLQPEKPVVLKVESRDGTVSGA

[7] = Cmax in human plasma at 8 mg, po; format: ADME, cell-free; parameters: route oral, dose 8 mg
[8] = Terminal half life in human plasma at 12 mg, po; format: ADME, cell-free; details: read-out: beta t1/2 (converted)
[9] = Cmax in human plasma at 4 mg, po; format: ADME, cell-free; parameters: route oral, dose 4 mg
Cytochrome P450 1A2 = molecular target: T2, Cytochrome P450 1A2 (Homo sapiens, UniProt P05177); experiment: Inhibition of CYP1A2 in human hepatocytes; format: ADME, cell-based, Hepatocyte
T2 sequence (P05177 whole entry): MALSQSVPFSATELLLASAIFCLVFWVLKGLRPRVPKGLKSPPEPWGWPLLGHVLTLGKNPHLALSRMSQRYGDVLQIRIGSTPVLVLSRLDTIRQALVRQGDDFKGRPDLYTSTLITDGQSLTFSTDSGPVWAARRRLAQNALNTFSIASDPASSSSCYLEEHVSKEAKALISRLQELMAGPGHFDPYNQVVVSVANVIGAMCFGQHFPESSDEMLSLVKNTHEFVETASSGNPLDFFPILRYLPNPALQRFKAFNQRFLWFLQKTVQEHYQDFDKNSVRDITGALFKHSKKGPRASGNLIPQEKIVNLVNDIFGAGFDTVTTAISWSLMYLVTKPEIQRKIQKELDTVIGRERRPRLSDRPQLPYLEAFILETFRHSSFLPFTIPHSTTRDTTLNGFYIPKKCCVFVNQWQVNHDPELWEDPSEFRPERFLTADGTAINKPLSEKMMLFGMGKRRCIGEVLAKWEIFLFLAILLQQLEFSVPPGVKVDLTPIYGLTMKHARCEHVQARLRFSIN

[10] = AUC (0 to infinity) in Beagle dog at 0.25 mg/kg, iv; format: ADME, organism-based, Canis lupus familiaris; parameters: route intravenous, time infinity, dose 0.25 mg/kg; details: in vivo
Cytochrome P450 2C9 = Cytochrome P450 2C9 (Homo sapiens, UniProt P11712); experiment: Inhibition of CYP2C9 in human hepatocytes; format: ADME, cell-based, Hepatocyte
Sequence of Cytochrome P450 2C9 (P11712 whole entry): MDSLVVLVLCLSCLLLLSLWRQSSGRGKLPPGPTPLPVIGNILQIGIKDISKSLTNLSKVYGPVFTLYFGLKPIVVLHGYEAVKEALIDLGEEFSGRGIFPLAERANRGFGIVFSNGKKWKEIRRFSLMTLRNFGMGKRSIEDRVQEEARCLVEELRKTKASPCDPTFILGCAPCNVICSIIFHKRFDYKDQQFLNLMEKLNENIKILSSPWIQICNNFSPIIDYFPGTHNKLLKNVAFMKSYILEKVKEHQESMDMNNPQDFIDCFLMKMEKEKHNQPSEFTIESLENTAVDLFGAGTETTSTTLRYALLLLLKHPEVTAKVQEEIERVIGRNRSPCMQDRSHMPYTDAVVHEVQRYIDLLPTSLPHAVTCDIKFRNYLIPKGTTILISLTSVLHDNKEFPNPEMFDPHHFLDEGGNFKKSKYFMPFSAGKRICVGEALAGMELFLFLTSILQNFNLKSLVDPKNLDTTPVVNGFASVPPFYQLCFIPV

[11] = AUC (0 to infinity) in Beagle dog at 0.25 mg/kg, po; format: ADME, organism-based, Canis lupus familiaris; parameters: route oral, time infinity, dose 0.25 mg/kg; details: in vivo
[12] = Tmax in human plasma at 12 mg, po; format: ADME, cell-free
Mus musculus = experiment: Cognitive enhancing effect in mouse model of scopolamine-induced memory impairment assessed as reduction in number of errors at 1 to 2 mg/kg, IG QD for 3 days by channel water maze test; format: functional, organism-based; details: dose 1-2 mg/kg, time 3.0 day
[13] = Tmax in human plasma at 4 mg, po; format: ADME, cell-free
[14] = Induction of CYP3A4 expression in human hepatocytes at 10 uM; format: ADME, cell-based, Hepatocyte
[15] = Ratio of drug concentration in brain to plasma of Sprague-Dawley rat at 10 mg/kg, po; format: ADME, organism-based; details: read-out: BPR
[16] = Tmax in Beagle dog at 0.25 mg/kg, po; format: ADME, organism-based, Canis lupus familiaris; details: in vivo
[17] = Tmax in human plasma at 1 mg, po; format: ADME, cell-free
[18] = molecular target: T1, Acetylcholinesterase (Mus musculus); experiment: Ex vivo inhibition of AChE in ICR mouse hippocampal homogenate at 2 mg/kg, ig using acetylthiocholine iodide as substrate measured after 30 to 240 mins by DTNB reagent based assay; format: functional, organism-based; details: time 30-240 min
[19] = Terminal half life in human plasma at 4 mg, po; format: ADME, cell-free; details: read-out: beta t1/2 (converted)
Cytochrome P450 2C8 = molecular target: T3, Cytochrome P450 2C8 (Homo sapiens, UniProt P10632); experiment: Inhibition of CYP2C8 in human hepatocytes; format: ADME, cell-based, Hepatocyte
T3 sequence (P10632 whole entry): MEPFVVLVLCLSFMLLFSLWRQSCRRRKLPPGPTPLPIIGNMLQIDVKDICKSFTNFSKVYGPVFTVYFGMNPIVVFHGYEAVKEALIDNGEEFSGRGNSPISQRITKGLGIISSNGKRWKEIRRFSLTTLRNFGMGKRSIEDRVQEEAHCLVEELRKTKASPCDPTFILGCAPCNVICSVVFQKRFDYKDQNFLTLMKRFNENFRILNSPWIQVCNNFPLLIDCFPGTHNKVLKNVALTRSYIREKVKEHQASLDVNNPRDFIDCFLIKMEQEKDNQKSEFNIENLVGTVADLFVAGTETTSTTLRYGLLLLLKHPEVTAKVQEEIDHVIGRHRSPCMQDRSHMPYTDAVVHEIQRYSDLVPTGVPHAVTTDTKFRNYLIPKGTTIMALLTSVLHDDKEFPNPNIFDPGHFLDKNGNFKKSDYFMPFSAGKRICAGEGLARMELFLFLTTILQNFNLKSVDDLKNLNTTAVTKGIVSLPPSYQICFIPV

[20] = Genotoxicity in Salmonella typhimurium TA97 by Ames test; format: toxicity; details: salmonella enterica subsp. enterica serovar typhimurium
[21] = AUC (0 to t) in Sprague-Dawley rat plasma at 10 mg/kg, po; format: ADME, organism-based; parameters: dose 10 mg/kg
[22] = Tmax in human plasma at 2 mg, po; format: ADME, cell-free
[23] = Mutagenecity against CHL cells; format: ADME, cell-based, Cricetulus griseus; details: chinese hamster
[24] = Toxicity in Beagle dog assessed as animal death at 1 to 20 mg/kg, po; format: organism-based, Canis lupus familiaris; details: in vivo, dose 1-20 mg/kg

Compound: COc1cc2c(cc1OC)C(=O)C(CC1(F)CCN(Cc3ccccc3F)CC1)C2 (centres undefined)
- Activity [1]: Non-Toxic
- AUC(0-inf) [2]: 179 ng·h/mL
- bioavailability [3]: 45.3%
- Cmax [4]: 35.7 ng/mL
- inhibition [5]: Active
- Activity [6]: Non-Toxic
- IC50 (Cytochrome P450 3A4): > 30 µM
- Cmax [7]: 16.4 ng/mL
- half-life [8]: 32.1 h
- Cmax [9]: 8.61 ng/mL
- IC50 (Cytochrome P450 1A2): > 30 µM
- AUC(0-inf) [10]: 256 ng·h/mL
- IC50 (Cytochrome P450 2C9): 4.77 µM
- AUC(0-inf) [11]: 157 ng·h/mL
- Tmax [12]: 1.5 h
- Activity (Mus musculus): Active
- Tmax [13]: 0.75 h
- Activity [14]: Non-Toxic
- Kp [15]: 5.4
- Tmax [16]: 0.92 h
- Tmax [17]: 1.5 h
- inhibition [18]: Active
- half-life [19]: 30.8 h
- IC50 (Cytochrome P450 2C8): > 30 µM
- Activity [20]: Non-Toxic
- AUC(0-t) [21]: 1080 ng·h/mL
- Tmax [22]: 1.5 h
- Activity [23]: Non-Toxic
- Activity [24]: Non-Toxic
